From patent US11661431B2, “Thienopyrrole compounds” (Gilead Sciences, Inc., priority 2021, dated 2023)
Read-outs that look alike come from different tables or passages of the source.

Key:
TLR7 = TLR7 (Homo sapiens (Human), UniProt Q9NYK1); assay: TLR7 human peripheral blood mononuclear cell (PBMC) cell-based assay (GS-986 as agonist; IL-6 and IFNα readout); settings: TLR7 agonist GS-986 at 400 nM, 6 hours, antagonist potency
Summary of the method: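 Human PBMCs (100,000 cells/well) preincubated 1 h at 37 °C with antagonist in 10-point dose response, then stimulated with TLR7 agonist for a further 6 h at 37 °C, 5% CO2. Supernatant IL-6 and IFNα measured by electrochemiluminescence immunoassay.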

TLR8 = TLR8 (Homo sapiens (Human), UniProt Q9NR97); assay: TLR8 human peripheral blood mononuclear cell (PBMC) cell-based assay (Compound A as agonist; TNFα and IL12p40 readout); settings: TLR8 agonist Compound A at 800 nM, 6 hours, antagonist potency
[1] = human PBMCs, read-out: TLR-7 EC50
[2] = human PBMCs, read-out: TLR-8 EC50

Sequence of TLR7 (Q9NYK1 27-1049): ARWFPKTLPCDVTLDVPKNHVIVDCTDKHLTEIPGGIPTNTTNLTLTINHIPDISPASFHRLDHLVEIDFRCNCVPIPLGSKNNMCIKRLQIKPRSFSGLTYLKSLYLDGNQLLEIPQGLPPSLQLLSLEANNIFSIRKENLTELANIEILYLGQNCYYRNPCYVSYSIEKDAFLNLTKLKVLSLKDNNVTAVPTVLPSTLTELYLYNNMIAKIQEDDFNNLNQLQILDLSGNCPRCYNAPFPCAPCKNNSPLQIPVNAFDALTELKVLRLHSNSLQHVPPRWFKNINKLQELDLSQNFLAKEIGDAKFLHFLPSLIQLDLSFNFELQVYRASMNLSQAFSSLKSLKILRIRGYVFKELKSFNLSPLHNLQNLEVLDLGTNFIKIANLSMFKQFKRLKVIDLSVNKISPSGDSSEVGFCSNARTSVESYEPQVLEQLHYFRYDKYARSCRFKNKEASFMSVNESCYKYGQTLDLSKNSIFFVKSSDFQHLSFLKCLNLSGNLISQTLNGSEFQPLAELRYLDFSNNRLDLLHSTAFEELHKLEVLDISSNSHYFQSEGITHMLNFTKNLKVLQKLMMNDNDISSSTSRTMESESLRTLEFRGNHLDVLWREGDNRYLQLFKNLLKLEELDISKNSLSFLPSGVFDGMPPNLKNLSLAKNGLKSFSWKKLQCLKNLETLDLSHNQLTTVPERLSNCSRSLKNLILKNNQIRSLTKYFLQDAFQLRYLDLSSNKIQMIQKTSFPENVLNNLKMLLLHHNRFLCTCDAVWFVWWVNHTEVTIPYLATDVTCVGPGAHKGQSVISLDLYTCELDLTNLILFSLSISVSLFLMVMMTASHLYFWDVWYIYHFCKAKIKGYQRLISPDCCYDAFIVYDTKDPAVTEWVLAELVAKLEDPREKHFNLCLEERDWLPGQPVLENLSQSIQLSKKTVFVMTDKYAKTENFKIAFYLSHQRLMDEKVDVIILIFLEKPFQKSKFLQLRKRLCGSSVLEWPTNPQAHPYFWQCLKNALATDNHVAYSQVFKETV
Sequence of TLR8 (Q9NR97 27-1041): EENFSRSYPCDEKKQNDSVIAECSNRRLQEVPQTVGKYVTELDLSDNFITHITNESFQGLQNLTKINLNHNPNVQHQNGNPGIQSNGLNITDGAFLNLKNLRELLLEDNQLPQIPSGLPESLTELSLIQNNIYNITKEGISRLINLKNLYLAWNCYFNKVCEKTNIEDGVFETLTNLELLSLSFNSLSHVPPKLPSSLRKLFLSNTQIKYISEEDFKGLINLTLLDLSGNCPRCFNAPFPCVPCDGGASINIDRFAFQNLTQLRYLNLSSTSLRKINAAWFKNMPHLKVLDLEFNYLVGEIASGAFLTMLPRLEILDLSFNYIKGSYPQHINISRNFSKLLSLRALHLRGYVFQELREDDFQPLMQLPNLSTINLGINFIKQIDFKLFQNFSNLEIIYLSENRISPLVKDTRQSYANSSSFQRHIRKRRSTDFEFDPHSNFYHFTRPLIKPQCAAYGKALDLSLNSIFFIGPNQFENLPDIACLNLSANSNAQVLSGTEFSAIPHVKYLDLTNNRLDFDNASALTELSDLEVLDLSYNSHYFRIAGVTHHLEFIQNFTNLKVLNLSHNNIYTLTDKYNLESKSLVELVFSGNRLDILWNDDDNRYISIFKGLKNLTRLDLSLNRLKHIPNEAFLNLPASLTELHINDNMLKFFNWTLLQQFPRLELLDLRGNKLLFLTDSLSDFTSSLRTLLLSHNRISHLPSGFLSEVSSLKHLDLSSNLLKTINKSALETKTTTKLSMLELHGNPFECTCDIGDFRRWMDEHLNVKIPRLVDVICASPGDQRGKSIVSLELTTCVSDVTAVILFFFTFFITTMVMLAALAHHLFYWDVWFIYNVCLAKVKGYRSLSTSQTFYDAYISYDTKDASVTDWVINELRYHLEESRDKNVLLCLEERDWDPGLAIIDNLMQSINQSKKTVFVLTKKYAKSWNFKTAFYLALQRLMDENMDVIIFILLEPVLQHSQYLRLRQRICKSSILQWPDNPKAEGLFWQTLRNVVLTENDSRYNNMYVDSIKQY

SMILES | EC50 (TLR7; [1]) [nM] | EC50 (TLR8; [2]) [nM] | EC50 (TLR7; TLR-7 EC50, human PBMCs) [nM] | EC50 (TLR8; TLR-8 EC50, human PBMCs) [nM]
Cc1c(-c2[nH]c3sc([C@@H]4C[C@@H]5C[C@H]4CN5CC(=O)NC[C@@H](F)C(C)(C)O)c(C)c3c2C(C)C)cn2ncnc2c1C [Example 273] | 1.24 | 1.01 | – | –
Cc1c(-c2[nH]c3sc(C45CCN(CCS(C)(=O)=O)CC4C5)c(C)c3c2C(C)C)cn2ncnc2c1C (centres unmarked) [Example 217] | 1.27 | 78.6 | – | –
Cc1c(C2CCN(C(=O)C3CNC3)CC2)sc2[nH]c(-c3cc(C)c4ncnn4c3)c(C(C)C)c12 [Example 16] | 1.63 | 46.1 | – | –
Cc1c(-c2[nH]c3sc(C4CCC(N5CC6(CCNC6=O)C5)CC4)c(C)c3c2C(C)C)cn2ncnc2c1C (single isomer, unassigned) [Example 305, 2-[4-[5-(7,8-dimethyl-[1,2,4]triazolo[1,5-a]pyridin-6-yl)-4-isopropyl-3-methyl-6H-thieno[2,3-b]pyrrol-2-yl]cyclohexyl]-2,6-diazaspiro[3.4]octan-5-one] | 0.78 | 4.44 | – | –
Cc1c(-c2[nH]c3sc(C4COC5(CCN(CC(N)=O)CC5)C4)c(C)c3c2C(C)C)cn2ncnc2c1C (single isomer, unassigned) [Example 87, 2-(3-(5-(7,8-dimethyl-[1,2,4]triazolo[1,5-a]pyridin-6-yl)-4-isopropyl-3-methyl-6H-thieno[2,3-b]pyrrol-2-yl)-1-oxa-8-azaspiro[4.5]decan-8-yl)acetamide] | 0.87 | 20.9 | – | –
Cc1c(-c2[nH]c3sc([C@@H]4C[C@@H]5CC[C@H]4CN5CC(=O)N(C)C)c(C)c3c2C(C)C)cn2ncnc2c1C (single isomer, unassigned) [Example 213] | 4.05 | 3.64 | – | –
Cc1c(C2CCN(CC(N)=O)CC2)sc2[nH]c(-c3ccc(C#N)c4ncccc34)c(C(C)C)c12 [Example 230] | 0.81 | 14 | – | –
Cc1cc(-c2[nH]c3sc(C(=O)N4CCNCC4)cc3c2C(C)C)cn2ncnc12 [Example 2] | 1.04 | 5.79 | – | –
Cc1c(-c2[nH]c3sc(C4C[C@H]5CC[C@@H]4N5)c(C)c3c2C(C)C)cn2ncnc2c1C (some centres unmarked) [Example 225] | – | – | 0.47 | 6.12
Cc1cc(-c2[nH]c3sc(C4CCN(CC(N)=O)CC4)c(C)c3c2C(C)C)cn(C)c1=O [Example 234] | 4.25 | 10.6 | – | –
Cc1c(-c2[nH]c3sc(C4C[C@@H]5C[C@H]4CC5N4CCNC(=O)C4)c(C)c3c2C(C)C)cn2ncnc2c1C (some centres unmarked) [Example 257] | 1.29 | 7.58 | – | –
Cc1c(-c2[nH]c3sc([C@@H]4C[C@@H]5C[C@H]4CN5CC(=O)OC(C)(C)C)c(C)c3c2C(C)C)cn2ncnc2c1C [Example 179, tert-butyl 2-((1S,4R,5R)-5-(5-(7,8-dimethyl-[1,2,4]triazolo[1,5-a]pyridin-6-yl)-4-isopropyl-3-methyl-6H-thieno[2,3-b]pyrrol-2-yl)-2-azabicyclo[2.2.1]heptan-2-yl)acetate] | 1.71 | 3.53 | – | –
Cc1c(-c2[nH]c3sc(C4CCN(C(=O)[C@H]5CO[C@@H](C)CN5)CC4)c(C)c3c2C(C)C)cn2ncnc2c1C [Example 280] | 1.96 | 41.2 | – | –
Cc1c(-c2[nH]c3sc(C4CC(c5nnc([C@H]6COCCN6)o5)C4)c(C)c3c2C(C)C)cn2ncnc2c1C (single isomer, unassigned) [Example 241] | 3.51 | 30.7 | – | –

Continued, in another order:

EC50 (TLR7; [1]) [nM] | EC50 (TLR8; [2]) [nM] | SMILES | EC50 (TLR7; TLR-7 EC50, human PBMCs) [nM] | EC50 (TLR8; TLR-8 EC50, human PBMCs) [nM]
0.1 | 1.06 | Cc1c(-c2[nH]c3sc(C4C[C@@H]5C[C@H]4CC5NC4COC4)c(C)c3c2C(C)C)cn2ncnc2c1C (stereo partly drawn) [Example 253, N-((1S,4S)-5-(5-(7,8-dimethyl-[1,2,4]triazolo[1,5-a]pyridin-6-yl)-4-isopropyl-3-methyl-6H-thieno[2,3-b]pyrrol-2-yl)bicyclo[2.2.1]heptan-2-yl)oxetan-3-amine] | – | –
0.1 | 2.17 | Cc1c(-c2[nH]c3sc(C4CCC(N5CC6(CCNC6=O)C5)CC4)c(C)c3c2C(C)C)cn2ncnc2c1C (centres unmarked) [Example 299, 2-[4-[5-(7,8-dimethyl-[1,2,4]triazolo[1,5-a]pyridin-6-yl)-4-isopropyl-3-methyl-6H-thieno[2,3-b]pyrrol-2-yl]cyclohexyl]-2,6-diazaspiro[3.4]octan-5-one] | – | –
0.19 | 7.17 | Cc1c(C2CC3CCC(C2)N3CC(N)=O)sc2[nH]c(-c3cc(C)c4ncnn4c3)c(C(C)C)c12 (centres unmarked) [Example 62, 2-(3-(4-isopropyl-3-methyl-5-(8-methyl-[1,2,4]triazolo[1,5-a]pyridin-6-yl)-6H-thieno[2,3-b]pyrrol-2-yl)-8-azabicyclo[3.2.1]octan-8-yl)acetamide] | – | –
0.1 | 0.54 | Cc1cc(-c2[nH]c3sc([C@H]4C[C@]5(CCN(CC(N)=O)C5)C4)c(C)c3c2C(C)C)cn2ncnc12 [Example 132] | – | –
0.1 | 0.11 | Cc1c(-c2[nH]c3sc([C@@H]4C[C@@H]5C[C@H]4CN5)c(C)c3c2C(C)C)cn2ncnc2c1C [Example 72, 2-((1S,4R,5R)-2-azabicyclo[2.2.1]heptan-5-yl)-5-(7,8-dimethyl-[1,2,4]triazolo[1,5-a]pyridin-6-yl)-4-isopropyl-3-methyl-6H-thieno[2,3-b]pyrrole] | – | –
0.09 | 3.91 | Cc1c(-c2[nH]c3sc(C4CCC5(CC4)CNCCO5)c(C)c3c2C(C)C)cn2ncnc2c1C (single isomer, unassigned) [Example 292, 9-(5-(7,8-dimethyl-[1,2,4]triazolo[1,5-a]pyridin-6-yl)-4-isopropyl-3-methyl-6H-thieno[2,3-b]pyrrol-2-yl)-1-oxa-4-azaspiro[5.5]undecane] | – | –
0.2 | 9.52 | Cc1c(C23CNCCC2C3)sc2[nH]c(-c3cc(C)c4ncnn4c3)c(C(C)C)c12 (centres unmarked) [Example 194] | – | –
0.5 | 5.96 | Cc1cc(-c2[nH]c3sc(C(=O)N(C)C4CCN(CCO)CC4)cc3c2C(C)C)cn2ncnc12 [Example 5] | – | –
< 0.05 | 0.49 | Cc1c(-c2[nH]c3sc(C4CCC(N5CC6(CCNC6=O)C5)CC4)c(C)c3c2C(C)C)cn2ncnc2c1C (single isomer, unassigned) [Example 306, 2-[4-[5-(7,8-dimethyl-[1,2,4]triazolo[1,5-a]pyridin-6-yl)-4-isopropyl-3-methyl-6H-thieno[2,3-b]pyrrol-2-yl]cyclohexyl]-2,6-diazaspiro[3.4]octan-5-one] | – | –
0.09 | 23.1 | Cc1c(-c2[nH]c3sc(C45CCN(CC(N)=O)CC4C5)c(C)c3c2C(C)C)cn2ncnc2c1C (single isomer, unassigned) [Example 102, 2-[6-[5-(7,8-dimethyl-[1,2,4]triazolo[1,5-a]pyridin-6-yl)-4-isopropyl-3-methyl-6H-thieno[2,3-b]pyrrol-2-yl]-3-azabicyclo[4.1.0]heptan-3-yl]acetamide] | – | –
0.6 | 22.2 | Cc1c(-c2[nH]c3sc(C4CCN(C5CCNC5=O)CC4)c(C)c3c2C(C)C)cn2ncnc2c1C (single isomer, unassigned) [Example 291, 3-[4-[5-(7,8-dimethyl-[1,2,4]triazolo[1,5-a]pyridin-6-yl)-4-isopropyl-3-methyl-6H-thieno[2,3-b]pyrrol-2-yl]-1-piperidyl]pyrrolidin-2-one] | – | –
0.24 | 15.2 | Cc1c(C2CCN(C(=O)[C@@H]3C[C@H](F)CN3)CC2)sc2[nH]c(-c3cc(C)c4ncnn4c3)c(C(C)C)c12 [Example 118] | – | –
0.15 | 61.8 | Cc1c(C2CCN(C(=O)[C@H]3COC(C)(C)CN3)CC2)sc2[nH]c(-c3cc(C)c4ncnn4c3)c(C(C)C)c12 [Example 158] | – | –
< 0.05 | 1.76 | Cc1c(-c2[nH]c3sc(C4CCC(N5CC(C)(O)C5)CC4)c(C)c3c2C(C)C)cn2ncnc2c1C (centres unmarked) [Example 304] | – | –
< 0.05 | 12.2 | Cc1c(-c2[nH]c3sc(C4CCN(C(=O)[C@H]5C[C@@]6(CN(CC(F)F)CCO6)C5)CC4)c(C)c3c2C(C)C)cn2ncnc2c1C [Example 298, [8-(2,2-difluoroethyl)-5-oxa-8-azaspiro[3.5]nonan-2-yl]-[4-[5-(7,8-dimethyl-[1,2,4]triazolo[1,5-a]pyridin-6-yl)-4-isopropyl-3-methyl-6H-thieno[2,3-b]pyrrol-2-yl]-1-piperidyl]methanone] | – | –
< 0.05 | 0.78 | Cc1c(-c2[nH]c3sc([C@H]4C[C@@H]5CC[C@H]4CN5Cc4cn(C)nn4)c(C)c3c2C(C)C)cn2ncnc2c1C (single isomer, unassigned) [Example 215] | – | –
0.2 | 9.95 | Cc1c(C2CCC3(CC2)CN(C(=O)[C@@H]2CCCN2)C3)sc2[nH]c(-c3cc(C)c4ncnn4c3)c(C(C)C)c12 [Example 37] | – | –
0.4 | 2.91 | Cc1c(-c2[nH]c3sc([C@H]4C[C@@H]5C[C@H]4CN5)c(C)c3c2C(C)C)cn2ncnc2c1C [Example 275, 2-((1S,4R,5S)-2-azabicyclo[2.2.1]heptan-5-yl)-5-(7,8-dimethyl-[1,2,4]triazolo[1,5-a]pyridin-6-yl)-4-isopropyl-3-methyl-6H-thieno[2,3-b]pyrrole] | – | –
0.13 | 15.6 | CO[C@@H]1CN[C@@H](C(=O)N2CCC(c3sc4[nH]c(-c5cc(C)c6ncnn6c5)c(C(C)C)c4c3C)CC2)C1 [Example 45] | – | –
0.21 | 0.25 | Cc1c(-c2[nH]c3sc([C@@H]4C[C@@H]5C[C@H]4CN5CCS(=O)(=O)CCO)c(C)c3c2C(C)C)cn2ncnc2c1C [Example 307, 2-((2-((1S,4R,5R)-5-(5-(7,8-dimethyl-[1,2,4]triazolo[1,5-a]pyridin-6-yl)-4 isopropyl-3-methyl-6H-thieno[2,3-b]pyrrol-2-yl)-2-azabicyclo[2.2.1]heptan-2-yl)ethyl)sulfonyl)ethan-1-ol] | – | –
